The results in this text go back to US20160361314A1, “COMBINATION OF AN ALK INHIBITOR AND A CDK INHIBITOR FOR THE TREATMENT OF CELL PROLIFERATIVE DISEASES” (NOVARTIS AG, priority 2013, published 2016).

Structures are written as SMILES. Like-named read-outs stand apart in the source and are kept apart here. Where only a bound is given, the exact number is not on record here.

Data set [1] deals with SKNFI neuroblastoma cells (WT). The data set is described as follows: xCELLigence in vitro growth inhibition (IC50). Particulars: Homo sapiens, SK-N-FI, 72 hours, single agent. It counts as cell-based.
Protocol: (§1) In vitro inhibitory activity was determined in five (5) neuroblastoma cell lines with a 96-well Real-Time Cell Electronic Sensing xCELLigence system (ACEA, San Diego, Calif.) which measures a “cell index”. Cell index is derived from alterations in electrical impedance as cells interact with the biocompatible microelectrode surface in each well to measure substrate adherent proliferation. Depending on the growth kinetics, the following cell densities were plated per well: NB1643: 20,000; SHSY5Y: 6,000; SKBE2C:10,000; NBEBC1: 11,000; NB1691: 30,000. After 24 hours, the plated cells were treated in triplicate with the test compound, each dose as indicated or with DMSO vehicle control. […] At 72 hours after drug exposure, the cell index was recorded.
(§2) The IC50 was calculated using GraphPad Prism 5.0 four parameter variable slope fitting.
For data set [2], the system named is NB1691 neuroblastoma cells (WT). The experiment in a line: xCELLigence in vitro growth inhibition and Chou-Talalay combination index. It counts as cell-based. Particulars: Homo sapiens.
In data set [3] the test system is NB1643 (R1275Q) human neuroblastoma cells. The data set is described as follows: ApoTox-Glo Triplex assay, viability and caspase 3/7 apoptosis. In kind it is cell-based. Particulars: 72 hours, 1/4 to 4 times IC50, equipotent ratio. As for the experimental part: The effect of treatment with the combinations of the invention on cell viability and apoptosis were evaluated in three human neuroblastoma cell lines: NB1643 (R1275Q), SH-SY5Y (F1174L) and EBC1 (WT) using the ApoTox-Glo Triplex assay. For confirmation, the treatment effect on cell viability was also evaluated in NB1643 (R1275Q) using the CellTitre-Glo (CTG) Luminescent Cell Viability assay. The assays were described, infra.
The test mixtures were evaluated by 72 hours after dosing, and the results were plotted in FIGS. 11A-C, 12A-C, 13A-C and 14A-C.
In vitro cell viability and Caspase-Glo 3/7 were simultaneously assayed using the ApoTox-Glo Triplex Assay (Promega, Calif.) in three neuroblastoma cell lines. […] After 72 hours of drug exposure, the fluorogenic substrate GF-AFC was added. The test mixture was incubated for 10 minutes and AFC fluorescence was measured at 380-400nm excitation and 505 nm emission.
Following measurement of live cell fluorescence, a luminogenic Caspase-Glo 3/7 substrate and luciferase was added to the same wells. Luminescence was measured after a 30 minutes incubation period. Luciferin is released following cleavage of the substrate by caspase-3/7, and thereby the luminescent signal is proportional to caspase activity.

Data set [4] has as its system NB-1643 human neuroblastoma cells. The experiment in a line: Loewe additivity (CHALICE) synergy screen, CellTiter-Glo viability, 7x7 dose matrix. It counts as cell-based. The conditions noted are these: NB-1643 (R1275Q), Table 2; for Max Combo Effect: in % (unit assumed). As for the experimental part: The synergistic interaction of drug combinations were assessed based on the Loewe Additivity Model using Chalice software [CombinatoRx, Cambridge Mass.]). […] 27:659-66. The software compares the response (% inhibition or % reduction of cell viability) of drug treatment from a combination of two agents to the response of the agents acting alone, against the drug-with-itself dose-additive reference model (the Loewe Additivity Model). Deviations from dose additives can be assessed numerically with a “synergy score” which quantifies the overall strength of combination effect. A synergy score >0 indicates a synergistic combination. In order to ensure only strongly synergistic combinations were selected, the acceptance criteria were set at a higher level. Strongly synergistic combinations were defined as having both a synergy score >2, a synergy score that is twice as large as the background (non-synergy) model would predict, and a maximum efficacy of >100, a value equivalent to stasis, as determined from the growth inhibition calculation.
After treatment, cell viabilty (quantity of viable cells) for each test mixtures were determined by the CellTiter-Glo® (CTG) luminescent cell viability assay (Promega) described in the Assay section, infra. […] The response to treatment (% reduction of cell viability) was analyzed using Chalice software [CombinatoRx, Cambridge Mass.]). Data evaluation and graph generation were performed using Microsoft Excel software and Chalice software.
The combinations were tested in duplicate using a 7×7 dose matrix block in 1536 well format with a cell proliferation readout as described in the Assay section infra.
All synergy calculations were performed using CHALICE software package from Zalicus and potential synergistic interactions between compound combinations were assessed using the Excess Inhibition 2D matrix according to the Loewe additivity model and were reported as synergy score (Table 10) (Lehar et al). Strongly synergistic combination were identified as having both (1) a synergy score greater than 2, a synergy score that is twice as large as the background (non-synergy) model would predict, and (2) a maximum efficacy of >100, a value roughly equivalent to stasis, as determined from the growth inhibition calculation.
Cell viability were determined by measuring cellular ATP content using the CellTiter-Glo® (CTG) luminescent cell viability assay (Promega). […] Reduced and enhanced luminescent signal values (responses) were calculated relative to untreated (control) cells, and the calculated signal value proportional to the cell viability.
Synergistic combinations were identified based on the Loewe Addivity Model. […]

Data set [5] has as its system SKBE2C neuroblastoma cells (WT). The experiment in a line: xCELLigence in vitro growth inhibition (IC50, Dm). In kind it is cell-based. Particulars: Homo sapiens, Neuroblastoma cell, single agent.
Protocol: as §1, §2
Drug combination effects and quantification of synergy were determined using the Chou-Talalay combination index method (Trends Pharmacol Sci 4, 450-454) and CalcuSyn v2 software (Biosoft, MO) in four neuroblastoma cell lines. Cells were plated and in vitro proliferation was measured using the xCELLigence system as described above.
The anti-proliferation potency of each individual agent was estimated by the median-effect dose, Dm. […] Fa=0 is determined based on DMSO control by the dose, and Fa=1 is a full response (no viable cells left) and. • Fu: fraction unaffected by dose where fu=1−fa.
Data set [6] relates to SHSY5Y neuroblastoma cells (F1174L). The data set is described as follows: xCELLigence in vitro growth inhibition and Chou-Talalay combination index. The conditions noted are these: Homo sapiens, SH-SY5Y, single agent. It counts as cell-based.
The test system of data set [7] is NBEBC1 neuroblastoma cells (WT). The data set is described as above. It counts as cell-based. Particulars: Homo sapiens, Neuroblastoma cell, single agent.
The subject of data set [8] is human neuroblastoma SH-SY5Y (F1174L ALK mutation) xenografts. Particulars: CB17 SCID mice; A1 50 mg/kg, B 250 mg/kg reduced to 187.5 mg/kg on day 5; p.o. gavage. How it is done: Enhancement of efficacy studies were conducted in vivo on CB17 SCID mice against human neuroblastoma SH-SY5Y (bearing an F1174L ALK mutation) xenografts.
CB17 scid female mice (Taconic Farms) were used to propagate subcutaneously implanted neuroblastoma tumors. Tumor diameters were measured twice per week with electronic calipers, and tumor volumes were calculated with the spheroid formula, (p/6)×d3, where d represents mean diameter. […] Mice were euthanized when tumor volume exceeded 3000 mm^3 or at the study conclusion at 7 weeks. A mixed-effects linear model was used to assess tumor volume over time between treatment and vehicle groups, controlling for tumor size at enrollment. Event-free survival probabilities were estimated using the Kaplan-Meier method and survival curves were compared using the log-rank test (SAS 9.3 and Stata 12.1). An event was defined as time to tumor volume ≧3000 mm^3, and tumor volumes after week 7 were censored. Mice were maintained under protocols and conditions approved by our institutional animal care and use committee.

Where [9] appears, read: NB-1691, 72 hours, single agent, read-out: IC50.
The mark [10] stands for this setting: NB-1691, single agent, read-out: Dm (median-effect dose).
The mark [11] stands for this setting: read-out: Dm (median-effect dose).

Consider `Cc1cc(Nc2ncc(Cl)c(Nc3ccccc3S(=O)(=O)C(C)C)n2)c(OC(C)C)cc1C1CCNCC1` [Compound A1, 5-chloro-N2-(2-isopropoxy-5-methyl-4-(piperidin-4-yl)phenyl)-N4-[2-(propane-2-sulfonyl)-phenyl]-pyrimidine-2,4-diamine], for which the IC50 in data set [1] worked out at 3.48 µM; in data set [2] (setting [9]) it was 1.93 µM; in data set [2] (setting [10]), 0.762 µM; in data set [5] (72 hours, read-out: IC50) it was 0.603 µM; in data set [5] (setting [11]), 0.35 µM; in data set [6] (72 hours, read-out: IC50) it was 0.963 µM. The IC50 in data set [6] (setting [11]) came to 1.5 µM; in data set [7] (72 hours, read-out: IC50), 1.92 µM; in data set [7] (setting [11]) it was 1.66 µM. The “Cell viability (cell death) and apoptosis” value in data set [3] is “effective in causing cell death and apoptosis”. The “Synergy score (Mean)” value in data set [4] is on record as 1.231. Moreover, in data set [4], the “Max Combo Effect” value worked out at 151.1. Also, the “Survival of the mice / deaths” value in data set [8] is listed as “euthanized due to the size of their tumor”. Further, the “Tumor volume / tumor growth” value in data set [8] is listed as “only a slight tumor growth delay compared to vehicle control”.

As for `CN(C)C(=O)c1cc2cnc(Nc3ccc(N4CCNCC4)cn3)nc2n1C1CCCC1` [Compound B, 7-cyclopentyl-N,N-dimethyl-2-((5-(piperazin-1-yl)pyridin-2-yl)amino)-7H-pyrrolo[2,3-d]pyrimidine-6-carboxamide], the IC50 was over 6 µM in data set [1] (unit in cell); 0.315 µM in data set [2] (setting [9]); 2.65 µM in data set [2] (setting [10]); 0.146 µM in data set [5] (72 hours, read-out: IC50); 0.446 µM in data set [5] (setting [11]); 0.111 µM in data set [6] (72 hours, read-out: IC50). Moreover, the IC50 was determined as 1.5 µM in data set [6] (setting [11]); 0.328 µM in data set [7] (72 hours, read-out: IC50); 1.26 µM in data set [7] (setting [11]). Further, the “Cell viability (cell death) and apoptosis” value in data set [3] is reported as “only slightly effective”. For the same compound, the “Synergy score (Mean)” value in data set [4] came out at 0.929. For the same compound, the “Max Combo Effect” value in data set [4] turned out to be 76.4. Besides, the “Survival of the mice / deaths” value in data set [8] was “one of the mice died on day 14”. Besides, the “Tumor volume / tumor growth” value in data set [8] was “slower tumor growth”.
